{"source": "patent US12680065B2", "about": "“Artificial placenta and methods of preparation” (The Trustees of the University of Pennsylvania, priority 2015, dated 2026)", "key": {"BeWo cells": {"system": "BeWo cells", "assay": "Forskolin-induced trophoblast syncytialization in the microfluidic device (immunofluorescence)", "assay_type": "cell-based, human", "protocol": "(§1) Following the formation of a confluent epithelial monolayer on the membrane surface in the upper microchannel, the apical side of the epithelium can be treated with forskolin to activate the protein kinase A pathway in the cultured trophoblasts. A stock solution of forskolin (Sigmal 5 mg/mL in DMSO) can be diluted with F-12K medium to a final concentration of 50 uM and perfused through the upper microchannel. After 72 hours of forskolin treatment, the trophoblast cells can be fixed in 4% PFA, permeabilized in Triton-X 100, and then incubated with 2% BSA in PBS for immunofluorescence staining. To analyze changes in junctional protein expression, the samples can be incubated with anti-E-cadherin antibody (Life Technologies) in 2% BSA, followed by secondary antibody and DAPI. Additionally, media perfusate can be collected at 48, 72, and 96 hours from both untreated and forskolin-treated devices. The collected samples can be analyzed using a human chorionic gonadotropin beta (β-hCG) ELISA kit (Abcam) to quantify the levels of β-hCG produced by the trophoblast population at each time point.\nAccordingly, when the BeWo cells in the maternal compartment are exposed to forskolin, they can begin to undergo cell-cell fusion as illustrated by nuclear aggregation that can be evident at 72 hours of forskolin treatment (FIG. 9B). […]"}, "trophoblast cells": {"system": "trophoblast cells", "assay": "β-hCG ELISA of maternal compartment perfusate", "assay_type": "cell-based, human", "conditions": "50 uM forskolin; no detectable β-hCG in the absence of forskolin", "protocol": "as §1, with “([…]” for “(Sigmal”, “point. […] Accordingly, the production of the […] of hCG in the maternal compartment can be measured to quantitatively examine syncytialization. […]” for “point.”"}}, "data": [{"smiles": "C=C[C@@]1(C)CC(=O)[C@]2(O)[C@@]3(C)[C@@H](O)CCC(C)(C)[C@@H]3[C@H](O)[C@H](OC(C)=O)[C@@]2(C)O1", "note": "[forskolin]", "values": [{"measurement": "fraction of BeWo population undergoing cell-cell fusion (nuclear aggregation)", "setting": "BeWo cells; 50 uM forskolin in upper microchannel, 72 hours", "result": "approximately 50%"}, {"measurement": "effect on cell viability", "setting": "BeWo cells; 50 uM forskolin, BeWo cells in maternal compartment", "result": "does not necessarily exert deleterious effects on cell viability"}, {"measurement": "time to production of hCG by trophoblast cells", "setting": "trophoblast cells", "result": "≤ 48", "unit": "h"}]}]}
